# Where two headings read alike, the source gives them in different places.
# What was measured:
# DPPH radical scavenging = conditions: compound 0.1 mM
# Description: (§1) S1 Antioxidant biological assay
# The antioxidant activity of the compounds was evaluated via their ability to scavenge in
# vitro free radicals such as DPPH and ABTS and to reduce H2O2. All the experiments were carried
# S1.1 Determination of the reducing activity of the stable radical DPPH
# To an ethanolic solution of DPPH (0.1 mM) an equal volume solution of the compounds
# (0.1 mM) in ethanol was added. Absolute ethanol was also used as control solution. The absorbance
# at 517 nm was recorded at room temperature after 30 and 60 min, in order to examine the possible
# existence of a potential time–dependence of the DPPH radical scavenging activity [S1]. The DPPH–
# scavenging activity of the compounds was expressed as the percentage reduction of the absorbance
# values of the initial DPPH solution (DPPH%). NDGA and BHT were used as reference compounds. […]
# [1] = ABTS radical cation scavenging; conditions: compound 0.1 mM
# Description: as §1
# (§2) The antioxidant activity of the compounds was evaluated via their ability to scavenge in […]
# (§3) vitro free radicals such as DPPH and ABTS and to reduce H2O2. […]
# S1.2 Assay of radical cation ABTS–scavenging activity
# The ABTS assay was performed to determine the activity of the compounds to scavenge the […]
# radical cation ABTS. Initially, a water solution of ABTS was prepared (2 mM). ABTS radical cation […]
# (ABTS+·) was produced by the reaction of ABTS stock solution with potassium persulfate (0.17 […]
# mM) and the mixture was stored in the dark at room temperature for 12–16 h before its use. The […]
# ABTS was oxidized incompletely because the stoichiometric reaction ratio of ABTS and potassium […]
# persulfate is 1:0.5. The absorbance became maximal and stable only after more than 6 h of reaction […]
# although the oxidation of the ABTS started immediately. The radical was stable in this form for […]
# more than 2 days when allowed to stand in the dark at room temperature. Afterwards, the ABTS+· […]
# solution was diluted in ethanol to an absorbance of 0.70 at 734 nm and 10 μL of diluted compounds or standards (0.1 mM) in DMSO were added. The absorbance was recorded out exactly 1 min after […]
# initial mixing [S1]. The ABTS radical scavenging activity was expressed as the percentage inhibition of the absorbance of the initial ABTS solution (ABTS%). […]
# [2] = Reduction of hydrogen peroxide; conditions: compound 0.1 mM
# Description: as §1, §2, §3
# S1.3 Reduction of hydrogen peroxide
# The ability of the compounds to reduce hydrogen peroxide (H2O2) was estimated according […]
# to the method described in the literature [S2]. The reaction mixture contained 20 μL of each of the […]
# tested compounds (0.1 mM) and 5 μL H 2O2 solution (40 mM) in phosphate buffer (50 mM, pH 7.4).
# The absorbance was measured at 230 nm after 10 min. The antioxidant activity (reduction of […]
# HSA = target: T1, HSA (Homo sapiens, UniProt P02768); experiment: Competitive HSA-fluorescence studies with warfarin and ibuprofen; type: binding
# T1 construct: purchased Sigma-Aldrich Co
# T1 sequence (P02768 25-609): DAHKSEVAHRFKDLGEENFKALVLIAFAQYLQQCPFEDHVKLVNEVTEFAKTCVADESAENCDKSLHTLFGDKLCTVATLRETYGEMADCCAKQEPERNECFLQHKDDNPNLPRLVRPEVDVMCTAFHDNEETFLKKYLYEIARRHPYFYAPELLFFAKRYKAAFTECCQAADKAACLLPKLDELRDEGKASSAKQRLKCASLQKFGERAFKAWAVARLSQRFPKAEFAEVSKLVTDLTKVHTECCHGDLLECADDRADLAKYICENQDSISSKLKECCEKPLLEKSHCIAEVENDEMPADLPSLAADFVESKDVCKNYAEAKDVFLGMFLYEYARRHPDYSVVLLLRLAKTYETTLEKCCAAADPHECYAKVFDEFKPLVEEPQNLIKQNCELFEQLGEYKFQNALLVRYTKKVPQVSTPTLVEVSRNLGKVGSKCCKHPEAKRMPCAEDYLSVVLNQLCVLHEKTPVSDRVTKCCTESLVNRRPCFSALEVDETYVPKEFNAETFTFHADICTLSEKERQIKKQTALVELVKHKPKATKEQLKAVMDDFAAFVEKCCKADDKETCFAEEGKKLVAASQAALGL
# BSA = target: T2, BSA (Bos taurus, UniProt P02769); experiment: Competitive BSA-fluorescence studies with warfarin and ibuprofen; type: binding, bovine
# T2 construct: purchased Sigma-Aldrich Co
# T2 sequence (P02769 25-607): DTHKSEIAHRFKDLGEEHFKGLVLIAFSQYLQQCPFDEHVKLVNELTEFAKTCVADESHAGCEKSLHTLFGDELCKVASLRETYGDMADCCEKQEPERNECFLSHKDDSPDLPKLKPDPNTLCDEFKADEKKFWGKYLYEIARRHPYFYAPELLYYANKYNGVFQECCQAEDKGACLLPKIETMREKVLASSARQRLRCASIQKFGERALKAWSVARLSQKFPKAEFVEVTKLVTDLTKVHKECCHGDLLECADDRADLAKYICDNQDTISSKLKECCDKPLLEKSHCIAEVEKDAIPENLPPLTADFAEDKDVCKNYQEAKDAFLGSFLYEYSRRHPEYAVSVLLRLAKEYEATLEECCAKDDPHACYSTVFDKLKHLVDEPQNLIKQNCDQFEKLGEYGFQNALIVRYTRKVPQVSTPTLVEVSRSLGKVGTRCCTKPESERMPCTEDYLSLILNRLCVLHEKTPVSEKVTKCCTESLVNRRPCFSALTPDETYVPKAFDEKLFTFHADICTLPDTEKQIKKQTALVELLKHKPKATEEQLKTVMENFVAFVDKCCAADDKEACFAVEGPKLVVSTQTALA
# Description: where n = the number of binding sites per albumin and K = the SA–binding constant. The K constant (M−1) is calculated from the slope in plots (ΔI/I0)/[Q] versus (ΔI/I0) and n is given by the ratio of y intercept to the slope [S9].
# S4.2 Competitive SA–fluorescence studies with warfarin and ibuprofen
# The competitive studies with warfarin or ibuprofen (site probes) [S10] were performed by tryptophan fluorescence quenching experiments using a fixed concentration of the BSA and site probes (3 μM) in buffer (containing 15 mM trisodium citrate and 150 mM NaCl at pH 7.0). The fluorescence emission spectra were recorded in the presence of increasing amounts of the compounds as quenchers with an excitation wavelength of 295 nm. The Scatchard equation (eq. 7) [S6] and plots were applied on the corrected SA–fluorescence emission spectra in order to determine the BSA–binding constant of the compounds in the presence of warfarin or ibuprofen.
# EB-DNA adduct (CT DNA) = experiment: EB-displacement from EB-DNA (fluorescence); type: binding, calf; conditions: for ΔΙ/Ι0 (%) EB-DNA fluorescence quenching: [EB] = 20 μM, [DNA] = 26 μM; for EB-DNA relative fluorescence emission intensity, % of the initial: λemission = 592 nm, final value; for kq (EB-DNA quenching constant): τo = 23 ns
# Description: page 8: […] spectroscopy, viscosity measurements and fluorescence emission spectroscopy studies. […] UV-vis spectroscopy was used for the evaluation of the interaction of the compounds with CT DNA, and specifically the possible binding modes of the compounds to CT DNA. Control experiments with DMSO were performed and no changes in the spectra of CT DNA were observed. In order to determine the binding mode, the UV-vis spectra of the compounds were […] concentrations of CT DNA for diverse r (r = [complex]/[DNA]) values. Effective use of the changes […] compounds were calculated by the Wolfe-[…] equation (eq. […] εf) versus [DNA]: (eq. S1) where [DNA] = the concentration of DNA in base pairs, ε f= the extinction coefficient for the free compound at the corresponding λmax, εA = Aobsd/[compound] and εb= the extinction coefficient for the compound in the fully bound form. K b is given by the ratio of slope to the y intercept in plots [DNA]/(εA-εf) versus [DNA]. S3.2 CT DNA-binding studies by viscosity measurements […] presence of increasing amounts of the compounds. The experiments were executed at room temperature and the measurements are devised in a plot (η/η 0)1/3 versus r, where η = the viscosity of DNA in the presence of the compound, and η0 = the viscosity of neat DNA in buffer solution. […] In order to determine and confirm the DNA-binding mode of the compounds, a competitive study with EB as an intercalating marker is performed by fluorescence emission spectroscopy. Therefore, the EB-displacing ability of the compounds from its EB-DNA conjugate was examined. […] solution (150 mM NaCl and 15 mM trisodium citrate at pH 7.0). The potential intercalation of the compounds between the DNA-bases was studied by the addition of a certain amount of the 8 (1 picture or pasted object on this page, not shown here) page 9: compound solution into the EB-DNA adduct solution. The influence of the compounds on the EB- DNA solution was monitored through the changes of the fluorescence emission spectra at excitation wavelength (λex) at 540 nm [S6]. […] Bearing that in mind, the observed quenching of the EB-DNA solution is evidently associated to the displacement of EB from its EB-DNA adduct. The quenching efficiency (KSV) for each compound was assessed according to the Stern - Volmer equation (eq. S2) [S6]: (eq. S2) where I0 and I = the fluorescence emission intensities of EB-DNA in the absence and presence of the quencher, respectively, [Q] = the concentration of the quencher (i.e. compounds). K SV is obtained from the Stern-Volmer plots by the slope of the diagram I0/I versus [Q]. Taking τ0 = 23 ns […] M-1s-1) of the compounds can be determined according to e quation S3: KSV = kqτo (eq. S3) 9 (1 picture or pasted object on this page, not shown here)
# [3] = drug site I (warfarin) vs II (ibuprofen)
smiles,measurement,setting,value
"COc1ccc(C=O)c([O-])c1.COc1ccc(C=O)c([O-])c1.[Pd+2] [Complex 5, [Pd(4-OMe-salo)2]]",DPPH% (30 min),DPPH radical scavenging,2.29 ± 0.36%
same,DPPH% (60 min),DPPH radical scavenging,3.00 ± 0.25%
same,ABTS%,[1],96.66 ± 0.46%
same,H2O2%,[2],58.38 ± 0.54%
same,HSA drug site preference,HSA; [3],did not seem to show firmly a selectivity
same,"HSA-binding constant K, Marker: Ibuprofen",HSA; ibuprofen,1.45 (±0.17) × 10^4 M^−1
same,"HSA-binding constant K, No Marker",HSA,3.56 (±0.12) × 10^5 M^−1
same,"HSA-binding constant K, Marker: Warfarin",HSA; warfarin,1.00 (±0.18) × 10^5 M^−1
same,BSA drug site preference,BSA; [3],drug site II
same,"BSA-binding constant K, Marker: Ibuprofen",BSA; ibuprofen 3 μM,6.52 (±0.46) × 10^4 M^−1
same,"BSA-binding constant K, No Marker",BSA,9.18 (±0.27) × 10^5 M^−1
same,"BSA-binding constant K, Marker: Warfarin",BSA; warfarin 3 μM,1.46 (±0.14) × 10^5 M^−1
same,"KSV (Stern–Volmer constant), EB-DNA",EB-DNA adduct (CT DNA),4.26 (±0.08) × 10^4 M^−1
same,ΔΙ/Ι0 (%) EB-DNA fluorescence quenching,EB-DNA adduct (CT DNA),44.2%
same,"EB-DNA relative fluorescence emission intensity, % of the initial",EB-DNA adduct (CT DNA),55.8%
same,kq (EB-DNA quenching constant),EB-DNA adduct (CT DNA),1.85 (±0.04) × 10^12 M^−1s^−1
"O=Cc1cc(Cl)cc(Cl)c1[O-].O=Cc1cc(Cl)cc(Cl)c1[O-].[Pd+2] [Complex 3, [Pd(3,5-diCl-salo)2]]",DPPH% (30 min),DPPH radical scavenging,4.60 ± 0.20%
same,DPPH% (60 min),DPPH radical scavenging,2.91 ± 0.11%
same,ABTS%,[1],63.45 ± 0.38%
same,H2O2%,[2],51.26 ± 0.70%
same,"HSA-binding constant K, Marker: Ibuprofen",HSA; ibuprofen,3.78 (±0.14) × 10^5 M^−1
same,"HSA-binding constant K, No Marker",HSA,4.10 (±0.17) × 10^5 M^−1
same,"HSA-binding constant K, Marker: Warfarin",HSA; warfarin,2.47 (±0.09) × 10^5 M^−1
same,"BSA-binding constant K, Marker: Ibuprofen",BSA; ibuprofen 3 μM,2.89 (±0.10) × 10^5 M^−1
same,"BSA-binding constant K, No Marker",BSA,7.82 (±0.24) × 10^5 M^−1
same,"BSA-binding constant K, Marker: Warfarin",BSA; warfarin 3 μM,3.26 (±0.34) × 10^5 M^−1
same,"KSV (Stern–Volmer constant), EB-DNA",EB-DNA adduct (CT DNA),7.53 (±0.18) × 10^4 M^−1
same,ΔΙ/Ι0 (%) EB-DNA fluorescence quenching,EB-DNA adduct (CT DNA),60.6%
same,"EB-DNA relative fluorescence emission intensity, % of the initial",EB-DNA adduct (CT DNA),39.4%
same,kq (EB-DNA quenching constant),EB-DNA adduct (CT DNA),3.27 (±0.08) × 10^12 M^−1s^−1
"CCN(CC)c1ccc(C=O)c(O)c1 [4-Et2N-saloH, 4-diethylamino-salicylaldehyde, reference compound]",DPPH% (30 min),DPPH radical scavenging,2.47 ± 0.09%
same,DPPH% (60 min),DPPH radical scavenging,3.20 ± 0.08%
same,ABTS%,[1],25.84 ± 0.34%
same,H2O2%,[2],76.57 ± 0.71%
same,Kd,HSA,2.48 µM
same,Kd,"HSA; read-out: HSA-binding constant K, Marker: Ibuprofen, ibuprofen",23.8 µM
same,Kd,"HSA; read-out: HSA-binding constant K, Marker: Warfarin, warfarin",4.39 µM
same,Kd,BSA,2.4 µM
same,Kd,"BSA; read-out: BSA-binding constant K, Marker: Ibuprofen, ibuprofen 3 μM",20.6 µM
same,Kd,"BSA; read-out: BSA-binding constant K, Marker: Warfarin, warfarin 3 μM",7.52 µM
same,"KSV (Stern–Volmer constant), EB-DNA",EB-DNA adduct (CT DNA),2.89 (±0.07) × 10^4 M^−1
same,ΔΙ/Ι0 (%) EB-DNA fluorescence quenching,EB-DNA adduct (CT DNA),43.4%
same,kq (EB-DNA quenching constant),EB-DNA adduct (CT DNA),1.25 (±0.03) × 10^12 M^−1s^−1

# Source: paper PMC9323974, “Palladium(II) Complexes of Substituted Salicylaldehydes: Synthesis, Characterization and Investigation of Their Biological Profile” (Pharmaceuticals, 2022)
